In brackets after ≈: the same amount, converted by molar mass.
How the values were obtained:
Type in all cases: cell-based, human
[1] = system: PAXF 546L; assay: Monolayer assay (modified propidium iodide), PAXF 546L; details: Pancreas, 4 days of treatment
From the text: (§1) Oncotest GmbH, Germany's proprietary tumor cell line panel comprises 40 cell lines. These cell lines were derived from 15 different tumor histotypes, each represented by 1 to 6 different cell lines. Cell lines were established from cancer of the bladder (3), colon (4), head and neck (1), lung (6), breast (3), pancreas (3), prostate (4), ovary (2), kidney (3), liver (1), stomach (1) and the uteri body (1), as well as from melanoma (3), sarcoma (2) and pleuramesothelioma (3). Out of these 40 cell lines, 24 cell lines were established at Oncotest, from patient-derived tumor xenografts. […]
(§2) Stock solutions of the test compounds (330 μg/mL in DMSO) were prepared and stored in small aliquots (200 μL) at −20° C. […] Each concentration was evaluated in triplicate. […]
(§3) Cells were plated in 96-well flat-bottom microtiter plates at a cell density of 4,000 to 10,000 cells/well. […] To measure the viable cell number, the remaining adherent cells were killed and permeabilized by repeated freezing and thawing and PI fluorescence was measured using the Cytofluor 4000 microplate reader (excitation λ=530 nm, emission λ=620 nm), which was a measure for the number of cells which survived treatment. […] IC-values were calculated based on the principle of linear two-point curve fit. […]

[2] = system: MCF 7; assay: Monolayer assay (modified propidium iodide), MCF 7; details: MCF 7, Mammary, 4 days of treatment
From the text: as §1, §2, §3

[3] = system: LXF 526L; assay: Monolayer assay (modified propidium iodide), LXF 526L; details: Lung, 4 days of treatment
From the text: Oncotest GmbH, Germany's proprietary tumor cell line panel comprises 40 cell lines. These cell lines were derived from 15 different tumor histotypes, each represented by 1 to 6 different cell lines. Cell lines were established from cancer of the bladder (3), colon (4), head and neck (1), lung (6), breast (3), pancreas (3), prostate (4), ovary (2), kidney (3), liver (1), stomach (1) and the uteri body (1), as well as from melanoma (3), sarcoma (2) and pleuramesothelioma (3). Out of these 40 cell lines, 24 cell lines were established at Oncotest, from patient-derived tumor xenografts. The other 16 cell lines were either provided by the NCI (Bethesda; MD, USA) or were purchased from ATCC (Rockville, Md., USA) or DSMZ (Braunschweig, Germany).
Cell lines were routinely passaged once or twice weekly and maintained in culture for upto 20 passages. All cells were grown at 37° C. in a humidified atmosphere with 5% CO2 in RPMI 1640 medium supplemented with 10% (v/v) fetal calf serum (FCS) and 0.1 mg/mL gentamicin (medium and all other components from PAA, Cölbe, Germany). […]
as §2
as §3, with “treatment. Pharmacological effects on cell proliferation and survival were expressed as Test/Control×100 (% T/C) values, with T and C representing the fluorescence read-outs for wells with and without test compound, respectively, i.e. T/C represents the ratio of viable cell numbers following incubation of cell line with/without test compound.” for “treatment.”

[4] = system: LXF 289L; assay: Monolayer assay (modified propidium iodide), LXF 289L; details: Lung, 4 days of treatment
From the text: as §1, §2, §3

[5] = system: LXF 629L; assay: Monolayer assay (modified propidium iodide), LXF 629L; details: Lung, 4 days of treatment
From the text: as §1, §2, §3

[6] = system: DU 145; assay: Monolayer assay (modified propidium iodide), DU 145; details: DU 145, Prostate, 4 days of treatment
From the text: as §1, §2, §3

[7] = system: PC3M; assay: Monolayer assay (modified propidium iodide), PC3M; details: Prostate, 4 days of treatment
From the text: as §1, §2, §3

[8] = system: UXF 1138L; assay: Monolayer assay (modified propidium iodide), UXF 1138L; details: Uterus, 4 days of treatment
From the text: as §1, §2, §3

[9] = system: PAXF 1657L; assay: Monolayer assay (modified propidium iodide), PAXF 1657L; details: Pancreas, 4 days of treatment
From the text: as §1, §2, §3

[10] = system: RKO; assay: Monolayer assay (modified propidium iodide), RKO; details: Colon, 4 days of treatment
From the text: as §1, §2, §3

[11] = system: GXF 251 L; assay: Monolayer assay (modified propidium iodide), GXF 251 L; details: Gastric, 4 days of treatment
From the text: as §1, §2, §3

[12] = system: PXF 1118L; assay: Monolayer assay (modified propidium iodide), PXF 1118L; details: Pleuramesothelioma, 4 days of treatment
From the text: as §1, §2, §3

[13] = system: PXF 1752L; assay: Monolayer assay (modified propidium iodide), PXF 1752L; details: Pleuramesothelioma, 4 days of treatment
From the text: as §1, §2, §3

[14] = system: MEXF 276L; assay: Monolayer assay (modified propidium iodide), MEXF 276L; details: Melanoma, 4 days of treatment
From the text: as §1, §2, §3

[15] = system: BXF 1218L; assay: Monolayer assay (modified propidium iodide), BXF 1218L; details: Bladder, 4 days of treatment
From the text: as §1, §2, §3

[16] = system: RXF 486L; assay: Monolayer assay (modified propidium iodide), RXF 486L; details: Renal, 4 days of treatment
From the text: as §1, §2, §3

[17] = system: PANC 1; assay: Monolayer assay (modified propidium iodide), PANC 1; details: PANC 1, Pancreas, 4 days of treatment
From the text: as §1, §2, §3

[18] = system: TE671; assay: Monolayer assay (modified propidium iodide), TE671; details: TE671, Sarcoma, 4 days of treatment
From the text: as §1, §2, §3

Compound `C/C=C/C(O)C(C)/C=C/C(=N\O)C(C)C(O)C(C)C1OC(=O)/C(OC)=C/C(C)=C/C(C)C(O)C(CC)C(O)C(C)C/C(C)=C/C=C/C1OC` (stereo not drawn) [Example 7, (3Z,5E,13E,15E)-18-((5Z,6E,10E)-3,9-Dihydroxy-5-(hydroxymino)-4,8-dimethyldodeca-6,10-dien-2-yl)-9-ethyl-8,10-dihydroxy-3,17-dimethoxy-5,7,11,13-tetramethyl oxacyclooctadeca-3,5,13,15-tetraen-2-one] has an IC50 ([1]; Homo sapiens, 96 h) of 0.5 ng/mL (≈ 0.725 nM), an IC70 [1] greater than 1000 ng/mL and an IC50 ([2]; Homo sapiens, MCF7, 96 h) of 1 ng/mL (≈ 1.45 nM). For the same compound, the IC70 [2] was 4.0 ng/mL (≈ 5.8 nM), the IC50 ([3]; Homo sapiens, 96 h) was less than 0.1 ng/mL and the IC70 [3] was 0.1 ng/mL (≈ 0.145 nM). The IC50 ([4]; Homo sapiens, 96 h) was 6 ng/mL (≈ 8.7 nM), the IC70 [4] was 68.0 ng/mL (≈ 98.6 nM) and the IC50 ([5]; Homo sapiens, 96 h) was 0.1 ng/mL (≈ 0.145 nM). The IC70 [5] was 1.0 ng/mL (≈ 1.45 nM), the IC70 [6] was 0.6 ng/mL (≈ 0.87 nM) and the IC50 ([6]; Homo sapiens, 96 h) was less than 0.1 ng/mL. For the same compound, the IC50 ([7]; Homo sapiens, PC-3M, 96 h) was 0.4 ng/mL (≈ 0.58 nM), the IC70 [7] was 3.0 ng/mL (≈ 4.35 nM) and the IC50 ([8]; Homo sapiens, 96 h) was 5 ng/mL (≈ 7.25 nM). The IC70 [8] was 11.0 ng/mL (≈ 15.9 nM), the IC50 ([9]; Homo sapiens, 96 h) was 8 ng/mL (≈ 11.6 nM) and the IC70 [9] was greater than 1000 ng/mL. The IC70 [10] was 0.6 ng/mL (≈ 0.87 nM), the IC50 ([10]; Homo sapiens, 96 h) was 0.2 ng/mL (≈ 0.29 nM) and the IC70 [11] was 6.0 ng/mL (≈ 8.7 nM). For the same compound, the IC50 ([11]; Homo sapiens, 96 h) was 1 ng/mL (≈ 1.45 nM), the IC50 ([12]; Homo sapiens, 96 h) was 432 ng/mL (≈ 626 nM) and the IC70 [12] was greater than 1000 ng/mL. For the same compound, the IC50 ([13]; Homo sapiens, 96 h) was 3 ng/mL (≈ 4.35 nM), the IC70 [13] was 22.0 ng/mL (≈ 31.9 nM) and the IC50 ([14]; Homo sapiens, MEXF276L, 96 h) was 1 ng/mL (≈ 1.45 nM). The IC70 [14] was 251.0 ng/mL (≈ 364 nM), the IC70 [15] was 46.0 ng/mL (≈ 66.7 nM) and the IC50 ([15]; Homo sapiens, 96 h) was 4 ng/mL (≈ 5.8 nM). It also gave an IC50 ([16]; Homo sapiens, 96 h) of 16 ng/mL (≈ 23.2 nM), an IC70 [16] of 39.0 ng/mL (≈ 56.5 nM) and an IC50 ([17]; Homo sapiens, 96 h) of 0.6 ng/mL (≈ 0.87 nM). The IC70 [17] was 17.0 ng/mL (≈ 24.6 nM), the IC50 ([18]; Homo sapiens, TE-671, 96 h) was 2 ng/mL (≈ 2.9 nM) and the IC70 [18] was 5.0 ng/mL (≈ 7.25 nM).

— US8637683B2, “Macrocyclic lactone derivatives for the treatment of cancer” (Piramal Enterprises Limited, priority 2009, dated 2014)
